Columns and labels:
CCRF-CEM = assay type: cell-based; details: Homo sapiens, one dose 10^-5 M, 48 h
HL-60(TB) = assay type: cell-based; details: Homo sapiens, one dose 10^-5 M, 48 h
K-562 = assay type: cell-based; details: Homo sapiens, K562, one dose 10^-5 M, 48 h
MOLT-4 = assay type: cell-based; details: Homo sapiens, one dose 10^-5 M, 48 h, read-out: % growth
RPMI-8226 = assay type: cell-based; details: Homo sapiens, one dose 10^-5 M, 48 h
SR = assay type: cell-based; details: Homo sapiens, one dose 10^-5 M, 48 h
A549/ATCC = assay type: cell-based; details: Homo sapiens, one dose 10^-5 M, 48 h
EKVX = assay type: cell-based; details: Homo sapiens, one dose 10^-5 M, 48 h
HOP-62 = assay type: cell-based; details: Homo sapiens, one dose 10^-5 M, 48 h
HOP-92 = assay type: cell-based; details: Homo sapiens, one dose 10^-5 M, 48 h
NCI-H226 = assay type: cell-based; details: Homo sapiens, one dose 10^-5 M, 48 h
NCI-H23 = assay type: cell-based; details: Homo sapiens, one dose 10^-5 M, 48 h, read-out: % growth
NCI-H460 = assay type: cell-based; details: Homo sapiens, one dose 10^-5 M, 48 h, read-out: % growth
NCI-H522 = assay type: cell-based; details: Homo sapiens, one dose 10^-5 M, 48 h
COLO 205 = assay type: cell-based; details: Homo sapiens, one dose 10^-5 M, 48 h
HCC-2998 = assay type: cell-based; details: Homo sapiens, one dose 10^-5 M, 48 h
HCT-116 = assay type: cell-based; details: Homo sapiens, one dose 10^-5 M, 48 h, read-out: % growth
HCT-15 = assay type: cell-based; details: Homo sapiens, one dose 10^-5 M, 48 h, read-out: % growth
HT29 = assay type: cell-based; details: Homo sapiens, HT-29, one dose 10^-5 M, 48 h
KM12 = assay type: cell-based; details: Homo sapiens, one dose 10^-5 M, 48 h
SW-620 = assay type: cell-based; details: Homo sapiens, one dose 10^-5 M, 48 h
SF-268 = assay type: cell-based; details: Homo sapiens, one dose 10^-5 M, 48 h, read-out: % growth
SF-295 = assay type: cell-based; details: Homo sapiens, one dose 10^-5 M, 48 h
SF-539 = assay type: cell-based; details: Homo sapiens, one dose 10^-5 M, 48 h
SNB-19 = assay type: cell-based; details: Homo sapiens, one dose 10^-5 M, 48 h, read-out: % growth
U251 = assay type: cell-based; details: Homo sapiens, U-251, one dose 10^-5 M, 48 h
LOX IMVI = assay type: cell-based; details: Homo sapiens, one dose 10^-5 M, 48 h, read-out: % growth
MALME-3M = assay type: cell-based; details: Homo sapiens, one dose 10^-5 M, 48 h
M14 = assay type: cell-based; details: Homo sapiens, one dose 10^-5 M, 48 h
MDA-MB-435 = assay type: cell-based; details: Homo sapiens, one dose 10^-5 M, 48 h, read-out: % growth
SK-MEL-2 = assay type: cell-based; details: Homo sapiens, one dose 10^-5 M, 48 h
SK-MEL-28 = assay type: cell-based; details: Homo sapiens, one dose 10^-5 M, 48 h
SK-MEL-5 = assay type: cell-based; details: Homo sapiens, one dose 10^-5 M, 48 h, read-out: % growth
UACC-257 = assay type: cell-based; details: Homo sapiens, one dose 10^-5 M, 48 h
UACC-62 = assay type: cell-based; details: Homo sapiens, one dose 10^-5 M, 48 h
IGROV1 = assay type: cell-based; details: Homo sapiens, IGROV-1, one dose 10^-5 M, 48 h, read-out: % growth
OVCAR-3 = assay type: cell-based; details: Homo sapiens, one dose 10^-5 M, 48 h
OVCAR-4 = assay type: cell-based; details: Homo sapiens, one dose 10^-5 M, 48 h
OVCAR-5 = assay type: cell-based; details: Homo sapiens, one dose 10^-5 M, 48 h
OVCAR-8 = assay type: cell-based; details: Homo sapiens, one dose 10^-5 M, 48 h
NCI/ADR-RES = assay type: cell-based; details: Homo sapiens, one dose 10^-5 M, 48 h
SK-OV-3 = assay type: cell-based; details: Homo sapiens, one dose 10^-5 M, 48 h
786-0 = assay type: cell-based; details: Homo sapiens, one dose 10^-5 M, 48 h
A498 = assay type: cell-based; details: Homo sapiens, one dose 10^-5 M, 48 h
ACHN = assay type: cell-based; details: Homo sapiens, one dose 10^-5 M, 48 h
CAKI-1 = assay type: cell-based; details: Homo sapiens, CAKI-1, 48 h, one dose 10^-5 M, 48 h
RXF 393 = assay type: cell-based; details: Homo sapiens, RXF 393, 48 h, one dose 10^-5 M, 48 h, read-out: % growth
SN12C = assay type: cell-based, human; details: Homo sapiens, one dose 10^-5 M, 48 h
TK-10 = assay type: cell-based; details: Homo sapiens, one dose 10^-5 M, 48 h
UO-31 = assay type: cell-based; details: Homo sapiens, UO-31, 48 h, one dose 10^-5 M, 48 h
PC-3 = assay type: cell-based; details: Homo sapiens, one dose 10^-5 M, 48 h
DU-145 = assay type: cell-based; details: Homo sapiens, one dose 10^-5 M, 48 h
MCF7 = assay type: cell-based; details: Homo sapiens, one dose 10^-5 M, 48 h, read-out: % growth
MDA-MB-231/ATCC = assay type: cell-based; details: Homo sapiens, one dose 10^-5 M, 48 h
HS 578T = assay type: cell-based; details: Homo sapiens; one dose 10^-5 M, 48 h; HS 578T; read-out: % growth
BT-549 = assay type: cell-based; details: Homo sapiens, one dose 10^-5 M, 48 h
T-47D = assay type: cell-based; details: Homo sapiens, T47D, one dose 10^-5 M, 48 h, read-out: % growth
MDA-MB-468 = assay type: cell-based; details: Homo sapiens, one dose 10^-5 M, 48 h
[1] = system: full NCI 60 cell lines panel; details: for activity at 10 µM: Homo sapiens, 60 cell, 48 h, read-out: Mean % growth
Experimental: 60 different human tumour cell lines-representing leukaemia, melanoma, and malignancies of the lung, colon, brain, ovary, breast, prostate, and kidney are used in the operation of this screen.
Compounds were dissolved in DMSO: glycerol (91) and were kept in a freezer at −70° C. The synthesised compounds were introduced to the culture at a single concentration of 1 0 ^−5 M and left to incubate for 48 h. A protein-binding dye called sulforhodamine B was used to measure end points (SRB).
A mean graph showing the % growth of treated cells is used to represent the one-dose data. The value provided for the One-dose assay represents growth in comparison to the no-drug control and to the number of cells at time zero. This enables the identification of lethality (values between 0 and 100) as well as growth inhibition (values less than 0). A value of 100, for instance, indicates no growth inhibition. A value of 40 would indicate 60% growth inhibition. A value of 0 indicates no net growth over the course of the experiment. A value of −40 would indicate 40% lethality.
Furthermore, the average sensitivity of all cell lines to the compound is termed as the full panel mean graph midpoints (MG-MID). The complete panel mean graph midpoints refers to the average sensitivity of all cell lines to the chemical (MG-MID). A measure of a compound’s selectivity for a given cell line is the ratio created by dividing the full panel mean graph midpoints (MG-MID) concentration by the individual subpanel MG-MID concentrations (obtained as the average sensitivity of all the cell lines in a given subpanel to the test compound).

SMILES: N=C(NN=Cc1ccc(Cl)cc1)c1c(N)nc(S)nc1-c1ccc(Cl)cc1Cl [Compound 4n, 4-Amino-N'-[(4-chlorophenyl)methylene]-6–(2,4-dichlorophenyl)-2-mercapto pyrimidine-5-carboximidohydrazide]
- % cell growth at 10 µM (CCRF-CEM): 106%
- % growth at 10 µM (HL-60(TB)): 108%
- % growth at 10 µM (K-562): 89.9%
- activity at 10 µM (MOLT-4): 92.4%
- % growth at 10 µM (RPMI-8226): 102%
- percent cell growth at 10 µM (SR): 90.6%
- % growth at 10 µM (A549/ATCC): 95.8%
- % cell growth at 10 µM (EKVX): 108%
- % growth at 10 µM (HOP-62): 83.1%
- % growth at 10 µM (HOP-92): 64.2%
- % growth at 10 µM (NCI-H226): 86.3%
- activity at 10 µM (NCI-H23): 92.9%
- activity at 10 µM (NCI-H460): 102%
- % growth at 10 µM (NCI-H522): 90.6%
- % growth at 10 µM (COLO 205): 114%
- % growth at 10 µM (HCC-2998): 101%
- activity at 10 µM (HCT-116): 94.6%
- activity at 10 µM (HCT-15): 101%
- % growth at 10 µM (HT29): 121%
- % growth at 10 µM (KM12): 108%
- % growth at 10 µM (SW-620): 106%
- activity at 10 µM (SF-268): 100%
- % cell growth at 10 µM (SF-295): 73.4%
- % growth at 10 µM (SF-539): 87.3%
- activity at 10 µM (SNB-19): 90.9%
- % growth at 10 µM (U251): 70.5%
- activity at 10 µM (LOX IMVI): 95.4%
- % growth at 10 µM (MALME-3M): 81.6%
- % growth at 10 µM (M14): 95.6%
- activity at 10 µM (MDA-MB-435): 104%
- % growth at 10 µM (SK-MEL-2): 108%
- % cell growth at 10 µM (SK-MEL-28): 106%
- activity at 10 µM (SK-MEL-5): 103%
- percent cell growth at 10 µM (UACC-257): 108%
- % growth at 10 µM (UACC-62): 90.9%
- activity at 10 µM (IGROV1): 97%
- % growth at 10 µM (OVCAR-3): 110%
- % growth at 10 µM (OVCAR-4): 107%
- percent cell growth at 10 µM (OVCAR-5): 105%
- % growth of cells at 10 µM (OVCAR-8): 91.2%
- cell growth percent at 10 µM (NCI/ADR-RES): 105%
- % growth at 10 µM (SK-OV-3): 92.2%
- % growth at 10 µM (786-0): 78%
- % growth at 10 µM (A498): 122%
- % growth at 10 µM (ACHN): 83.7%
- % growth at 10 µM (CAKI-1): 98.6%
- activity at 10 µM (RXF 393): 84.7%
- % growth at 10 µM (SN12C): 90.1%
- % cell growth at 10 µM (TK-10): 143%
- % cell growth at 10 µM (UO-31): 93.2%
- percent cell growth at 10 µM (PC-3): 102%
- % growth at 10 µM (DU-145): 109%
- activity at 10 µM (MCF7): 83.6%
- % growth at 10 µM (MDA-MB-231/ATCC): 82.5%
- activity at 10 µM (HS 578T): 102%
- % cell growth at 10 µM (BT-549): 92.6%
- activity at 10 µM (T-47D): 92.6%
- percent cell growth at 10 µM (MDA-MB-468): 96.1%
- activity at 10 µM [1]: 97.2%
- activity on all 60 cancer cell lines tested (in words) ([1]; one dose): weak activity

SMILES: N=C(NN=Cc1ccc([N+](=O)[O-])cc1)c1c(N)nc(S)nc1-c1ccc(Cl)cc1Cl [Compound 4o, 4-amino-6–(2,4-dichlorophenyl)-2-mercapto-N'-[(4-nitrophenyl)methylene] pyrimidine-5-carboximidohydrazide]
- % cell growth at 10 µM (CCRF-CEM): 106%
- % growth at 10 µM (HL-60(TB)): 103%
- % growth at 10 µM (K-562): 95%
- activity at 10 µM (MOLT-4): 94%
- % growth at 10 µM (RPMI-8226): 97.3%
- percent cell growth at 10 µM (SR): 76.8%
- % growth at 10 µM (A549/ATCC): 101%
- % cell growth at 10 µM (EKVX): 98.9%
- % growth at 10 µM (HOP-62): 57%
- % growth at 10 µM (HOP-92): 2.04%
- % growth at 10 µM (NCI-H226): 82.1%
- activity at 10 µM (NCI-H23): 90.2%
- activity at 10 µM (NCI-H460): 114%
- % growth at 10 µM (NCI-H522): 78.5%
- % growth at 10 µM (COLO 205): 115%
- % growth at 10 µM (HCC-2998): 106%
- activity at 10 µM (HCT-116): 85.2%
- activity at 10 µM (HCT-15): 103%
- % growth at 10 µM (HT29): 116%
- % growth at 10 µM (KM12): 108%
- % growth at 10 µM (SW-620): 108%
- activity at 10 µM (SF-268): 94.9%
- % cell growth at 10 µM (SF-295): 52.4%
- % growth at 10 µM (SF-539): 74.7%
- activity at 10 µM (SNB-19): 74.9%
- % growth at 10 µM (U251): 67%
- activity at 10 µM (LOX IMVI): 96.5%
- % growth at 10 µM (MALME-3M): 73%
- % growth at 10 µM (M14): 102%
- activity at 10 µM (MDA-MB-435): 108%
- % growth at 10 µM (SK-MEL-2): 93.4%
- % cell growth at 10 µM (SK-MEL-28): 113%
- activity at 10 µM (SK-MEL-5): 104%
- percent cell growth at 10 µM (UACC-257): 104%
- % growth at 10 µM (UACC-62): 84.7%
- activity at 10 µM (IGROV1): 94.9%
- % growth at 10 µM (OVCAR-3): 110%
- % growth at 10 µM (OVCAR-4): 111%
- percent cell growth at 10 µM (OVCAR-5): 111%
- % growth of cells at 10 µM (OVCAR-8): 98.4%
- cell growth percent at 10 µM (NCI/ADR-RES): 105%
- % growth at 10 µM (SK-OV-3): 89.1%
- % growth at 10 µM (786-0): 54.1%
- % growth at 10 µM (A498): 160%
- % growth at 10 µM (ACHN): 88.8%
- % growth at 10 µM (CAKI-1): 78.8%
- activity at 10 µM (RXF 393): 73%
- % growth at 10 µM (SN12C): 96.1%
- % cell growth at 10 µM (TK-10): 142%
- % cell growth at 10 µM (UO-31): 98.3%
- percent cell growth at 10 µM (PC-3): 96.8%
- % growth at 10 µM (DU-145): 115%
- activity at 10 µM (MCF7): 88.2%
- % growth at 10 µM (MDA-MB-231/ATCC): 77.5%
- activity at 10 µM (HS 578T): 87.1%
- % cell growth at 10 µM (BT-549): 75.7%
- activity at 10 µM (T-47D): 95.3%
- percent cell growth at 10 µM (MDA-MB-468): 90.8%
- activity at 10 µM [1]: 93.5%
